Laboratory results taken from PMC10377586 (Biomolecules, 2023).

Assays:
[1] = DPPH antioxidant assay; format: physicochemical; details: compound at 50 µM
Source text: The 2,2-diphenyl-1-picrylhydrazyl (DPPH) assay was used to determine the antioxidant properties of selected compounds using ascorbic acid, trolox, and quercetin as references. […] From a structural point of view, 21 and 22 share a common pyrimido[2,1-f]purinedione core with propyl or butyl substituents at the N1- and N3-position. Compounds 11i and 11l, containing hexyl or phenoxyethyl as N7-substituents, were the only structures in the groups of bicyclic xanthine derivatives that lacked antioxidant activity in the DPPH assay.
Antioxidant properties of considered structures were evaluated in DPPH test. The assay utilizes a stable free radical 2,2-diphenyl-1-picrylhydrazyl (DPPH). DPPH has a deep violet color in solution and strong absorption band at 520 nm. The antioxidant activity of the tested compounds was defined by their ability to induce the formation of the reduced form of DPPH. Upon reduction, DPPH color turned pale yellow, which manifested by decreased sample absorption at 520 nm and was measured in conducted experiments using EnSpire microplate reader (PerkinElmer). Antioxidant activity of xanthine derivatives and reference compounds was tested in triplicate at 50 µM concentration and normalized to the activity of reference radical scavenger—quercetin.
Figure 2 Antioxidant properties of xanthine derivatives evaluated in the DPPH test. All compounds were tested at 50 µM concentration. Results were normalized to the antioxidant activity measured for quercetin. ASC, ascorbic acid; TLX, trolox; QCT, quercetin.

SMILES	melting point	Antioxidative Activity [% of Quercetin Response at 50 µM ± SD] [1]
Cc1c(C)c2c(c(C)c1O)CCC(C)(C(=O)O)O2 (centres unmarked) [Trolox, reference compound]		73 ± 1 % of Quercetin Response
O=C1O[C@H]([C@@H](O)CO)C(O)=C1O [Ascorbic acid, reference compound]		78 ± 1 % of Quercetin Response

Now from value to compound, other results behind:

melting point	SMILES	Antioxidative Activity [% of Quercetin Response at 50 µM ± SD] [1]
201 to 203 °C	CC(C)Cn1c(NCCc2ccc(O)c(O)c2)nc2c1c(=O)n(C)c(=O)n2C (hydrate or solvate) [Compound 11f, 8-((3,4-Dihydroxyphenethyl)amino)-7-isobutyl-1,3-dimethyl-3,7-dihydro-1H-purine-2,6-dione]	
214 to 216 °C	Cn1c(=O)c2c(nc(NCCc3ccc(O)c(O)c3)n2Cc2ccccc2)n(C)c1=O (hydrate or solvate) [Compound 11j, 7-Benzyl-8-((3,4-dihydroxyphenethyl)amino)-1,3-dimethyl-3,7-dihydro-1H-purine-2,6-dione]	
180 to 182 °C	Cn1c(=O)c2c(nc(NCCc3ccc(O)c(O)c3)n2CCc2ccccc2)n(C)c1=O (hydrate or solvate) [Compound 11k, 8-((3,4-Dihydroxyphenethyl)amino)-1,3-dimethyl-7-phenethyl-3,7-dihydro-1H-purine-2,6-dione]	
